Read-outs that look alike come from different tables or passages of the source.
Experiments:
[1] = Brain tissue binding (BTB), rapid equilibrium dialysis; assay type: in vitro ADME, Sprague Dawley rat; settings: 1 μg/mL in rat brain homogenate, 37° C., 6 h dialysis, mean of n = 3; for fraction unbound at 6 h, 1 μg/mL: male, Sprague Dawley, pH 7.4, read-out: Rat Brain fu
Procedure: Method for Determination of Plasma Protein Binding (PPB) and Brain Tissue Binding (BTB) Compound Preparation • Compounds were dissolved in DMSO to give a 1 mg free base/mL solution, before further dilution to 100 μg/mL in acetonitrile (100 μL of 1 mg/mL into 900 μL acetonitrile). Matrix Preparation • On the morning of dialysis, control male Sprague Dawley rat plasma and brain, previously stored at −80° C. were thawed at room temperature. Plasma was checked for pH and if necessary adjusted to 7.4 with 1M HCl. Plasma was then centrifuged (2000 g for 10 min) and the brains diluted with 2 mL of Phosphate Buffered Saline (pH 7.4) per gram of tissue and homogenised using a mechanical homogeniser. An aliquot (10 μL) of the 100 μg/mL acetonitrile compound solution was then added to 1 mL of plasma and brain homogenate and vortex mixed to give a final compound concentration of 1 μg/mL in matrix. RED Plate Preparation • The Rapid Equilibrium Dialysis (RED) plate (Thermo Scientific) was prepared in accordance with the manufacturers guidelines i.e. the base plate was soaked in 20% (v/v) ethanol for 10 min and then rinsed twice with deionised water before being allowed to dry. The base plate was then filled with the appropriate number of disposable inserts (n=3 per compound) (Thermo Scientific) and matrix containing 1 μg/mL compound added into the matrix chamber of the inserts (200 μL) and an aliquot (350 μL) of PBS added to the buffer chamber. The plate was then covered with an adhesive and incubated in air at 37° C. for 6 h with 130 rpm agitation. Sampling • Following the 6 h incubation, the seal was removed and an aliquot (50 μL) taken from the PBS chambers and dispensed into Micronics tubes. Also, an aliquot (50 μL) was removed from the matrix chambers and placed into separate Micronics tubes. Plasma and brain was then matrix matched with 50 μL of drug-free PBS and the PBS samples with 50 μL of the corresponding drug-free matrix, to give equal final compositions and volumes […]. Sample Analysis • Samples were vortex mixed and an aliquot (300 μL) of acetonitrile containing 0.1% formic acid and 100 ng/mL of an appropriate internal standard added. Samples were then mixed and centrifuged (2000 g for 15 min) and an aliquot of the supernatant (100 μL) removed into a 96-deep well plate and diluted with an equal volume of water ready for analysis by LC-MS/MS. • The following data was obtained for the following compounds in the above assay (Table 5).

[2] = test system: Aβ peptide production in rat primary neuronal culture; assay: In vitro cellular assay: quantification of Aβ peptide in culture of neurons from rat fetus brain; assay type: cell-based, Wistar rat; settings: Primary cortical neuron
Procedure: Quantification of Aβ Peptide in Culture of Neurons from Rat Fetus Brain
Primary neuronal cultures were prepared from the cerebral cortex of embryonic day 18 Wistar rats (Charles River, UK). Specifically, the embryos were aseptically removed from pregnant rats under ether anesthesia. The brain was isolated from the embryo and immersed in HBSS (Sigma Aldrich #H9269) containing 10 mM HEPES (Gibco #15630-056). The cerebral cortex was collected from the isolated brain under a stereoscopic microscope. The cerebral cortex fragments collected were enzymatically treated in an enzyme solution containing 0.05% trypsin-EDTA solution (GIBCO, #25300) at 37° C. for 20 minutes to disperse the cells. The cells were then washed twice and then gently resuspended in Neurobasal medium (Gibco #21103) supplemented with 2% B27 supplement (GIBCO #17504-044), 0.5 mM L-glutamine (GIBCO #25030), 1×N2 (GIBCO #17502-048), 100 μg/ml Pen/Strep (GIBCO 15140-122) and 5% heat inactivated FCS (PAA #A15-701). The cell dispersion was filtered through a 40-μm nylon mesh (BD Falcon #352340) to remove the remaining cell mass, and thus a neuronal cell suspension was obtained. The neuronal cell suspension was diluted with the medium above and then plated in a volume of 100 μL/well at an initial cell density of 3.25×10^5 cells/ml in poly-D-lysine coated 96-well culture plate (Greiner #655940). The plated cells were cultured in the culture plate at 37° C. in 5% CO2-95% air for 24 hrs. The total amount of the medium was replaced with ‘assay Neurobasal medium’ (as above excluding heat inactivated FCS), and then the cells were cultured for a further five days.
The drug was added to the culture plate on Day 6 of culture as follows. 8 point compound serial dilutions were generated in DMSO at a concentration of ×1000 that of the final assay concentration (FAC). Compound solutions were then prepared by adding 999 ul of ‘Assay Neurobasal media’ (as described in above section) to 1 ul of DMSO compound stock. The total amount of the medium was removed from each of the cell plate wells, and […] of ‘Assay Neurobasal media’ was added followed by […] of compound solution. The final DMSO concentration was 0.1%. […]
Cell survival was evaluated using an Alamar assay according to the following procedure. […]
Measurement of fluorescence intensity for each well was the carried out at 540/590 nm using a Pherastar plus plate reader (BMG labtech). […]
Human/Rat β Amyloid (42) ELISA Kit Wako (#290-62601) and Human/Rat P Amyloid (40) ELISA Kit Wako (#294-62501) from Wako Pure Chemical Industries, Ltd. were used for Aβ ELISA. […] The results were shown as percentage of the control groups and IC50 values for each compound were determined using four parameter logistic fit model using the XLFIT5 software package (IDBS).

[3] = Aβ ELISA, rat primary cortical neurons, Aβ species (x-40 or x-42) not given, read-out: IC50

Row | Rat BTB (%) [1] | fraction unbound at 6 h, 1 μg/mL [1] | IC50 [2, 3] | SMILES | IC50 ([2]; Rattus norvegicus)
1 | 96.5% | 0.035 | 4 nM | COc1cnc(C(=O)Nc2ccc(F)c([C@]34CO[C@H](C(F)F)[C@H]3CSC(N)=N4)c2)cn1 [Example 3, N-(3-((4aS,5S,7aS)-2-amino-5-(difluoromethyl)-4a,5,7,7a-tetrahydro-4H-furo[3,4-d][1,3]thiazin-7a-yl)-4-fluorophenyl)-5-methoxypyrazine-2-carboxamide] | 
2 | 97.9% | 0.021 | 12 nM | COc1cnc(C(=O)Nc2cc(F)c(F)c([C@]34CO[C@H](CF)[C@H]3CSC(N)=N4)c2)cn1 [Example 4, N-(3-((4aS,5S,7aS)-2-amino-5-(fluoromethyl)-4a,5,7,7a-tetrahydro-4H-furo[3,4-d][1,3]thiazin-7a-yl)-4,5-difluorophenyl)-5-methoxypyrazine-2-carboxamide] | 

Row | SMILES | Rat BTB (%) [1] | fraction unbound at 6 h, 1 μg/mL [1] | IC50 [2, 3] | IC50 ([2]; Rattus norvegicus)
3 | COc1cnc(C(=O)Nc2ccc(F)c([C@]34CO[C@H](CF)[C@H]3CSC(N)=N4)c2)cn1 [Example 2, N-(3-((4aS,5S,7aS)-2-amino-5-(fluoromethyl)-4a,5,7,7a-tetrahydro-4H-furo[3,4-d][1,3]thiazin-7a-yl)-4-fluorophenyl)-5-methoxypyrazine-2-carboxamide] | 93.4% | 0.066 |  | 4 nM

From patent publication US9175013B2, “Fused aminodihydrothiazine derivatives” (Eisai R&D Management Co., Ltd., priority 2011, dated 2015)
